Experimental data published in PubChem BioAssay (NCI).
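48-hour exposure; five concentrations; linearly interpolated endpoints. GI50 marks 50% less growth. The concentration for full growth arrest is given as TGI.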

How the values were obtained:
Assay in all cases: NCI anticancer screen, dose series, 48 h
PC-3 prostate = test system: PC-3 prostate
BT-549 breast = test system: BT-549 breast
SF-268 CNS = test system: SF-268 CNS
OVCAR-3 ovarian = test system: OVCAR-3 ovarian
HL-60(TB) leukemia = test system: HL-60(TB) leukemia
SK-MEL-5 melanoma = test system: SK-MEL-5 melanoma
LOX IMVI melanoma = test system: LOX IMVI melanoma
RXF 393 renal = test system: RXF 393 renal
NCI-H226 lung = test system: NCI-H226 lung
HCC-2998 colon = test system: HCC-2998 colon

| Compound | GI50 (PC-3 prostate) [µM] | TGI (PC-3 prostate) [µM] | GI50 (BT-549 breast) [µM] | TGI (BT-549 breast) [µM] | GI50 (SF-268 CNS) [µM] | TGI (SF-268 CNS) [µM] | GI50 (OVCAR-3 ovarian) [µM] | TGI (OVCAR-3 ovarian) [µM] | GI50 (HL-60(TB) leukemia) [µM] | TGI (HL-60(TB) leukemia) [µM] | GI50 (SK-MEL-5 melanoma) [µM] | TGI (SK-MEL-5 melanoma) [µM] | GI50 (LOX IMVI melanoma) [µM] | TGI (LOX IMVI melanoma) [µM] | GI50 (RXF 393 renal) [µM] | TGI (RXF 393 renal) [µM] | TGI (NCI-H226 lung) [µM] | TGI (HCC-2998 colon) [µM] | GI50 (NCI-H226 lung) [µM] | GI50 (HCC-2998 colon) [µM] |
| --- | --- | --- | --- | --- | --- | --- | --- | --- | --- | --- | --- | --- | --- | --- | --- | --- | --- | --- | --- | --- |
| NC(N)=N/N=C/c1c(-c2ccccn2)nc2sc(Cl)cn12 | 10.9 | 22 | 8.25 | 15.2 | 8.04 | 17.8 | 7.55 | 14.3 | 11 | 25.8 | 8.47 | 15.4 | 7.26 | 14 |  |  |  |  |  |  |
| CC1(C)OC(=O)C=C([O-])O1.CC1(C)OC(=O)C=C([O-])O1.O=c1c(O)c(-c2ccc([O-])cc2[O-])oc2cc(O)cc(O)c12.[Ti+4] |  |  |  |  |  | 95.5 |  | > 100 |  | > 100 |  | > 100 |  | > 100 | 36.7 | 93.3 | > 100 |  |  |  |
| Oc1c2c(c(O)c3ccccc13)=N[C@@H](c1ccccc1)[C@H](c1ccccc1)N=2 |  |  |  |  |  | > 100 |  | > 100 |  | > 100 |  | > 100 |  | > 100 |  | > 100 | > 100 | > 100 |  |  |
| COc1cc(/C=C/C(=N\NC(=O)c2ccccc2)c2sc(Nc3ccc(Cl)c(Cl)c3)nc2C)ccc1O |  |  |  |  |  | > 100 |  | 76.6 |  | 40 |  |  |  | 44.9 |  | > 100 | 56 | 91.8 |  |  |
| CCCS(=O)(=O)c1nc(NC2CC2)cc(-c2ccc3c(ccn3C3CC(C)(C)NC(C)(C)C3)c2)n1 | 1.78 | 3.47 |  |  | 1.88 | 3.89 | 1.84 | 3.42 | 1.75 | 3.73 | 1.72 | 3.15 | 1.67 | 3.17 | 1.64 | 3.44 | 3.71 |  | 1.74 |  |
| COc1cc(/C=C\c2ccc(O)cc2)cc(OC)c1OC |  |  |  |  |  | 4.63 |  | 6.24 |  | > 29.3 |  | 18.6 |  | > 100 |  | > 25.1 | > 100 | > 79 |  |  |
| CCOc1cccc2nc3cccc(C(=O)NCCN(C)C)c3nc12 |  |  |  |  |  |  |  | 5.51 |  |  |  |  |  | 2.11 |  | 3.21 | 2.08 | 3.53 |  |  |
| CCCCCC(C(O)C#N)C(O)(C(F)(F)F)C(F)(F)F (configuration not stated) |  | > 10 |  | > 10 |  | > 10 |  | > 10 |  | > 10 |  | > 10 |  | > 10 |  |  |  | > 10 |  |  |
| CCOC(=O)Cc1nc(/C(C#N)=C/c2ccco2)[nH]c(=O)c1C#N |  |  |  |  |  |  |  | > 100 |  | > 100 |  | > 100 |  | > 100 |  | > 100 | > 100 | > 100 |  |  |
| COC(=O)c1c(O)ccc2[nH]c(C)c(C#N)c12 | 38.7 | > 100 | 64 | > 100 | 40 | > 100 | 31.4 | > 100 |  |  | 24.3 | > 100 | 30.9 | > 100 | 22 | > 100 | 70.6 | > 100 | 28.5 | 95.1 |
| CCOC(=O)/C(=C/c1ccco1)P(=O)(OCC)OCC |  |  |  |  |  | > 100 |  |  |  | > 100 |  | > 100 |  | > 100 |  |  | > 100 | > 100 |  |  |
| NS(=O)(=O)c1ccc(NC(=O)c2cccc3c(=O)c4ccccc4[nH]c23)cc1 |  |  |  |  |  | > 100 |  | > 100 |  | > 100 |  | > 100 |  | > 100 |  |  | > 100 | > 100 |  |  |
| Cn1c(N)nc2c(nc(OCc3ccccc3)n2C2OC(CO)C(O)C2O)c1=O (configuration not stated) |  | > 100 |  |  |  | > 100 |  | > 100 |  | > 100 |  | > 100 |  | > 100 |  | > 100 | > 100 |  |  |  |
| COc1cc(/C=C2\CC3C4CC=C5CC(N6CCCC6)CC[C@]5(C)C4CC[C@]3(C)C2OC(C)=O)ccc1OCCN1CCCC1 (some centres not stated) | 3.45 | 10.2 | 16.6 | 31.4 | 2.53 | 6.04 | 0.304 | 2 | 2.05 | 4.36 |  |  | 1.27 | 2.6 |  |  | 10.1 |  | 3.19 |  |
| CCCNCc1cc(C)cc2c1nc(N1CCNCC1)n2Cc1cc(C)c(F)c(C)c1 | 2.49 | 7.66 | 12.3 | 26.1 | 5.11 | 19.7 | 3.71 | 13.5 | 1.76 | 3.8 | 1.75 | 3.21 | 1.72 | 3.22 |  |  | 38.2 | 3.47 | 19.1 | 1.83 |
| N#Cc1c(N)c(C(=O)O)nn(-c2cccc(C(F)(F)F)c2)c1=O |  |  |  |  |  | > 100 |  | > 100 |  | > 100 |  | > 100 |  | > 100 |  | > 100 |  |  |  |  |
| NC(CCSCC(F)F)C(=O)O (configuration not stated) |  |  |  |  |  | > 100 |  | > 100 |  | > 100 |  | > 100 |  | > 100 |  | > 100 | > 100 | > 100 |  |  |
| Cc1cc(C)nc(NS(=O)(=O)c2ccc(Nc3c4ccccc4nc4c(C(=O)N5CCN(CCOS(C)(=O)=O)CC5)ccc(Cl)c34)cc2)n1 |  |  |  |  |  | > 100 |  | > 100 |  | > 100 |  | > 100 |  |  |  | > 100 | > 100 | > 100 |  |  |
| O=c1c2ccccc2c2c3c1cccc3c1cccc3c(=O)c4ccccc4c2c31 |  |  |  |  |  | > 100 |  | > 100 |  |  |  | > 100 |  | > 100 |  | > 100 | > 100 | > 100 |  |  |
| COc1ccc(C2=NC(C)(C)CO2)cc1 |  |  |  |  |  | > 100 |  | > 100 |  | > 100 |  | > 100 |  | > 100 |  | > 100 |  |  |  |  |
| CC1(C)CCc2cc3c(cc2O1)OCCC3=O |  |  |  |  |  | > 100 |  | > 100 |  | > 100 |  | > 100 |  | > 100 |  | > 100 | > 100 | > 100 |  |  |
| O=C(c1ccccc1)[C@H]1Nc2cnccc2C2c3ccccc3CC21 (some centres not stated) |  |  |  |  |  | 59.9 |  | 29.7 |  | 23.2 |  | 10.1 |  | 3.55 |  | 50.4 | 20.2 | > 100 |  |  |
